Paper PMC6332165, “Study of the Relationships between the Structure, Lipophilicity and Biological Activity of Some Thiazolyl-carbonyl-thiosemicarbazides and Thiazolyl-azoles” (Molecules, 2015)

Tests used:
phagocytes = system: phagocytes; set-up: method as in PMID 23504664; details: turpentine oil-induced inflammation, mean ± SD; cited from earlier work
[1] = system: nitric oxide (NO) synthesis; set-up: method as in PMID 23504664; unit not given here; details: turpentine oil-induced inflammation, mean ± SD; cited from earlier work
oxidative stress = system: oxidative stress; set-up: method as in PMID 23504664; details: turpentine oil-induced inflammation, mean ± SD; cited from earlier work
[2] = system: turpentine oil-induced inflammation; set-up: method as in PMID 23504664; Leukocytes (L, leukocytes count):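 lower leukocyte count means stronger anti-inflammatory effect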; details: mean ± SD; cited from earlier work
[3] = Lipophilicity by reversed-phase thin-layer chromatography (RP-TLC), isopropanol-water mobile phase; type: physicochemical; details: RP-18F254s TLC, iso-propanol-water 45-65% (v/v); for RM0 (lipophilicity estimation parameter, intercept of RM = RM0 + bC): extrapolated to pure water
Experimental: Some of the parameters resulting from a RP-TLC may be associated to the lipophilic character of the analytes. The retention parameters (RM) are calculated by means of well-known Batte-Smith and Westall Equation (1): RM = log (1/RF − 1) (1)
Generally, the RM values determined by RP-TLC are linearly dependent on the concentration of the organic modifier (C) in the mobile phase Equation (2): RM = RM0 + bC (2) where b and RM0 are, respectively, the slope and the intercept of Equation (2). […] Additionally, it has been stated that not only the RM0, but also the slope, b, as a characteristic of the specific hydrophobic surface area of the compounds, can be used as an estimation of lipophilicity. The advantages of TLC methods consist in the small quantity of compounds needed for the determination, and the rapidity and simplicity of the method. Also, they are inexpensive, rapid and easy to perform.
Chromatography was performed on 20 × 20 cm RP-18F254s TLC precoated silica plates (Merck; Darmstadt, Germany). Solutions (1 mg/mL) of the tested compounds were prepared in iso-propanol, and 3 μL aliquots were spotted in duplicate on the plates by hand, 10 mm from the bottom edge and 20 mm apart. The mobile phases were composed of the iso-propanol-water binary mixtures, with a varying content of organic modifier between 45% and 65% (v/v) in 5% increments, as the study compounds differed considerably in their retention. Chromatography was performed in a normal developing chamber at room temperature, the developing distance being 10 cm. The chromatography chamber was saturated with the mobile phase for 30 min before use. After the development (30–60 min), the plates were air dried at room temperature and examined under a UV lamp (λ = 254 nm), and the RF (retardation factor) values were measured manually by a digital caliper. The experiments were performed in triplicate.

| SMILES | b (slope of RM = RM0 + bC, specific hydrophobic surface area) [3] | RM0 (lipophilicity estimation parameter, intercept of RM = RM0 + bC) [3] | PA (phagocytic activity) (phagocytes) | PI (phagocytosis index) (phagocytes) | NO (nitric oxide synthesis) [1] | OSI (oxidative stress index) (oxidative stress) | TAR (total antioxidant response) (oxidative stress) | TOS (total oxidative status) (oxidative stress) | Leukocytes (L, leukocytes count) [2] | PMN (polymorphonuclear leukocytes, differential leucocyte count) [2] |
| --- | --- | --- | --- | --- | --- | --- | --- | --- | --- | --- |
| Cc1nc(-c2ccccc2)sc1C(=O)NNC(=S)Nc1ccccc1 [Th-1] | −2.627 | 1.369 | 18.5 ± 1.8 | 21.5 ± 4.6% | 50.479 ± 5.7 | 4.66 ± 2.2 | 1.108 ± 0.003 | 51.622 ± 6.2 | 5587.5 ± 455 | 60.4 ± 4.1% |
| Cc1ccc(-c2nc(C)c(C(=O)NNC(=S)Nc3ccccc3)s2)cc1 [Th-2] | −2.853 | 1.595 | 22.5 ± 2.8 | 21.5 ± 2.8% | 51.827 ± 6.3 | 5.76 ± 5.3 | 1.099 ± 0.003 | 63.265 ± 5.4 | 6543 ± 271 | 60.6 ± 3.1% |
| CNC(=S)NNC(=O)c1sc(-c2ccccc2)nc1C [Th-4] | −2.355 | 0.986 | 29 ± 1.8 | 22.5 ± 3.5% | 47.501 ± 2.8 | 4.49 ± 3.6 | 1.109 ± 0.006 | 49.823 ± 3.6 | 12,218.8 ± 1341 | 82.8 ± 4.1% |
| CNC(=S)NNC(=O)c1sc(-c2ccc(C)cc2)nc1C [Th-5] | −2.502 | 1.161 | 22.5 ± 0.9 | 19.5 ± 2.3% | 47.024 ± 8.9 | 4.7 ± 3.1 | 1.096 ± 0.001 | 51.557 ± 17.1 | 11,633.3 ± 154 | 59.8 ± 3.6% |
| CNC(=S)NNC(=O)c1sc(-c2ccc(Br)cc2)nc1C [Th-6] | −2.740 | 1.398 | 18 ± 1.5 | 13 ± 3.2% | 50.591 ± 9.1 | 3.93 ± 2.6 | 1.097 ± 0.006 | 43.108 ± 5.6 | 6056.25 ± 862 | 70.4 ± 2.9% |
| C=CCNC(=S)NNC(=O)c1sc(-c2ccccc2)nc1C [Th-7] | −2.484 | 1.195 | 53.5 ± 3.5 | 20.5 ± 0.9% | 54.355 ± 6.2 | 3.98 ± 3.8 | 1.107 ± 0.003 | 44.073 ± 3.8 | 6356.25 ± 66 | 73.2 ± 4.0% |
| C=CCNC(=S)NNC(=O)c1sc(-c2ccc(C)cc2)nc1C [Th-8] | −2.685 | 1.398 | 21 ± 1.1 | 21.5 ± 0.9% | 48.793 ± 5.5 | 5.03 ± 4.1 | 1.107 ± 0.002 | 55.664 ± 4.2 | 5718.75 ± 104 | 66.6 ± 1.0% |
| Cc1nc(-c2ccc(Br)cc2)sc1-c1nnc(S)n1-c1ccccc1 [Th-11] | −3.133 | 2.020 | 19.75 ± 2.4 | 21 ± 1.1% | 66.799 ± 5.9 | 6.08 ± 4.9 | 1.092 ± 0.003 | 66.394 ± 8.9 | 11,137.5 ± 483 | 86.4 ± 2.6% |
| Cc1nc(-c2ccccc2)sc1-c1nnc(S)n1C [Th-12] | −2.463 | 1.305 | 20 ± 1.5 | 22.5 ± 3.5% | 70.029 ± 6.4 | 8.27 ± 4.2 | 1.095 ± 0.004 | 90.592 ± 4.2 | 8456.25 ± 565 | 78.6 ± 1.0% |

Second part, led by results:

| b (slope of RM = RM0 + bC, specific hydrophobic surface area) [3] | RM0 (lipophilicity estimation parameter, intercept of RM = RM0 + bC) [3] | SMILES | PA (phagocytic activity) (phagocytes) | PI (phagocytosis index) (phagocytes) | NO (nitric oxide synthesis) [1] | OSI (oxidative stress index) (oxidative stress) | TAR (total antioxidant response) (oxidative stress) | TOS (total oxidative status) (oxidative stress) | Leukocytes (L, leukocytes count) [2] | PMN (polymorphonuclear leukocytes, differential leucocyte count) [2] |
| --- | --- | --- | --- | --- | --- | --- | --- | --- | --- | --- |
| −2.739 | 1.600 | Cc1nc(-c2ccc(Br)cc2)sc1C(=O)NNC(=S)Nc1ccccc1 [Th-3] | 31 ± 1.8 | 21.5 ± 0.9% | 52.838 ± 8.9 | 3.62 ± 2.9 | 1.095 ± 0.003 | 39.601 ± 7.9 | 4987 ± 133 | 63.6 ± 3.9% |
| −2.630 | 1.479 | Cc1nc(-c2ccccc2)sc1-c1nnc(S)n1-c1ccccc1 [Th-9] | 20.5 ± 0.9 | 21 ± 7.0% | 65.479 ± 4.8 | 6.25 ± 5.2 | 1.101 ± 0.001 | 68.780 ± 16.2 | 9000 ± 428 | 67.4 ± 3.0% |
| −2.948 | 1.754 | Cc1ccc(-c2nc(C)c(-c3nnc(S)n3-c3ccccc3)s2)cc1 [Th-10] | 23 ± 1.1 | 20.5 ± 0.9% | 65.142 ± 5.3 | 4.95 ± 5.4 | 1.095 ± 0.003 | 54.164 ± 5.4 | 5606.25 ± 154 | 61.2 ± 3.4% |
| −2.672 | 1.565 | Cc1ccc(-c2nc(C)c(-c3nnc(S)n3C)s2)cc1 [Th-13] | 27.5 ± 0.9 | 25.5 ± 2.8% | 75.451 ± 6.9 | 4.63 ± 3.6 | 1.1 ± 0.012 | 50.886 ± 5.6 | 10,172 ± 331 | 80.8 ± 3.0% |
| −2.659 | 1.630 | Cc1nc(-c2ccc(Br)cc2)sc1-c1nnc(S)n1C [Th-14] | 23.5 ± 0.9 | 28 ± 2.1% | 86.04 ± 2.9 | 6.1 ± 4.7 | 1.097 ± 0.006 | 66.876 ± 9.7 | 10,172 ± 520 | 75.4 ± 4.5% |
| −2.905 | 1.664 | C=CCn1c(S)nnc1-c1sc(-c2ccccc2)nc1C [Th-15] | 29 ± 3.2 | 24 ± 4.3% | 71.630 ± 5.9 | 6.32 ± 4.4 | 1.094 ± 0.006 | 69.171 ± 4.4 | 9982.5 ± 81 | 77.4 ± 5.1% |
